According to patent publication US20130164384A1, “METHODS OF TREATING BOWEL DISEASES BY ADMINISTERING A BOWEL CLEANSER AND AN ANTIBIOTIC” (Salix Pharmaceuticals, Ltd., priority 2008, published 2013):

Test system: subjects diagnosed with dIBS
Test: Designed study of 14-day oral rifaximin 550 mg TID for adequate relief of dIBS symptoms over four weeks
Type: in vivo, human
Settings: oral 550 mg TID, 14-day course; 4 week study duration
Method: A study is designed to evaluate the efficacy of a 14-day course of oral rifaximin at 550 mg TID in providing adequate relief from diarrhea-associated IBS (dIBS) symptoms over four weeks. The study populations includes subjects diagnosed with dIBS according to Rome III criteria utilizing the subtype for dIBS from the Rome II criteria. Subjects have a mean abdominal pain and discomfort score <4.5, a mean bloating score of <4.5 and a mean stool score (loose and watery)<3.5 for at least 7 of the 10 days during screening. A measure of efficacy is based on subjects' answers to the Weekly Subject Global Assessment (SGA) questions over the 4 week study duration in relation to their IBS symptoms. The SGA question is asked weekly as follows: “In the past 7 days, have you had adequate relief of your IBS symptoms?” (Yes/No.) It is discovered that Subjects in the treatment group taking oral rifaximin respond “Yes” more often than Subjects who are not taking oral rifaximin. Another measure of efficacy is based on subjects' answers to the Weekly Subject Global Assessment (SGA) question over the 4 week study duration in relation to their IBS symptom of bloating. The SGA question is asked weekly as follows: “In the past 7 days, have you had adequate relief of your IBS symptom of bloating?” (Yes/No). […]

COC1/C=C/OC2(C)Oc3c(C)c(O)c4c(O)c(c5c(nc6cc(C)ccn65)c4c3C2=O)NC(=O)/C(C)=C\C=C\C(C)C(O)C(C)C(O)C(C)C(OC(C)=O)C1C [RFX, (2S,16Z,18E,20S,21S,22R,23R,24R,25S,26S,27S,28E)-5,6,21,23,25 Pentahydroxy-27-methoxy-2,4,11,16,20,22,24,26-octamethyl-2,7-(epoxypentadeca-(1,11,13)trienimino)benzofuro(4,5-e)pyrido(1,2,-a)benzimidazole-1,15(2H)-dione,25-acetate]
"Yes" responses to weekly SGA question on adequate relief of IBS symptom of bloating versus subjects not taking rifaximin: more often
"Yes" responses to weekly SGA question on adequate relief of IBS symptoms versus subjects not taking rifaximin: more often
